pKi: −log10 of the molar value.
Columns and labels:
δ receptor = δ receptor (Mus musculus, UniProt P32300); settings: experimental value of the reference opioid; cited from earlier work
μ receptor = μ receptor (Rattus norvegicus, UniProt P33535); settings: experimental value of the reference opioid; cited from earlier work
κ receptor [1] = target: κ receptor (Mus musculus, UniProt P33534); settings: experimental value of the reference opioid; cited from earlier work
mu receptor = mu receptor (Homo sapiens, UniProt P35372); experiment: Competitive analysis vs 3H-Bremazocine, mu receptor; format: binding
delta receptor = delta receptor (Homo sapiens, UniProt P41143); experiment: Competitive analysis vs 3H-Bremazocine, delta receptor; format: binding
κ receptor [2] = target: κ receptor (Homo sapiens, UniProt P41145); experiment: Competitive analysis vs 3H-Bremazocine, κ receptor; format: binding; settings: reference compound 3H-Bremazocine

| SMILES | experimental affinity δ receptor (value in parenthesis) (δ receptor) | experimental affinity μ receptor (value in parenthesis) (μ receptor) | experimental affinity κ receptor (value in parenthesis) (κ receptor [1]) | % Inhibition μ (mu receptor) [%] | pKi (mu receptor; competitive analysis, 1.64 nM 3H-Bremazocine, dose response curve FIG. 7B, read-out: Representative Ki μ) | pKi (delta receptor; competitive analysis, 1.64 nM 3H-Bremazocine, dose response curve FIG. 7A, read-out: Representative Ki δ (delta binding affinity)) | % Inhibition δ (delta receptor; competitive analysis, reference compound 3H-Bremazocine) [%] | delta/mu selectivity (delta receptor; ratio delta vs mu binding) | % Inhibition κ (κ receptor [2]) [%] |
| --- | --- | --- | --- | --- | --- | --- | --- | --- | --- |
| CN1CC[C@]23c4c5ccc(O)c4OC2C(=O)C2(Cc4ccccc4C2)C[C@@]3(O)C1C5 (some centres unmarked) [SIOM, spiroindanyloxymorphone] | 8.77 | 7.48 | < 6.00 |  |  |  |  |  |  |
| Oc1ccc2c3c1O[C@H]1c4[nH]c5ccccc5c4C[C@@]4(O)[C@@H](C2)N(CC2CC2)CC[C@]314 [NTI, naltrindole] | 10.70 |  | 7.18 |  |  |  |  |  |  |
| Oc1cccc(-n2cnnc2-c2cccc(-c3ccccc3)c2)c1 [DST3-2] |  |  |  | 84 | 6.00 | 6.85 | 84 | 10/1 | 42 |
